One assay relates to CD8+ T cells from HLA-A*02+ buffy coats of healthy donors. The assay is described as follows: In vitro priming of CD8+ T cells with pMHC/anti-CD28 coated beads (aAPC), tetramer readout. The class given is cell-based, human. Particulars: healthy HLA-A*02+ donors; three in vitro stimulations; TUMAP-specific tetramer+ CD8+ T cells. How it is done:
To perform in vitro stimulations by artificial antigen presenting cells (aAPC) loaded with peptide-MHC complex (pMHC) and anti-CD28 antibody, first we isolated PBMCs (peripheral blood mononuclear cells) from fresh HLA-A*02+ buffy coats by using standard density gradient separation medium (PAA, Cölbe, Germany). Buffy coats were either obtained from the Blood Bank Tubingen or from the Katharinenhospital Stuttgart. Isolated PBMCs were incubated overnight in T-cell medium (TCM) for human in vitro priming consisting of RPMI-Glutamax (Invitrogen, Karlsruhe, Germany) supplemented with 10% heat inactivated human AB serum (PAA, Cölbe, Germany), 100 U/ml Penicillin/100 μg/ml Streptomycin (Cambrex, Verviers, Belgium), 1 mM sodium pyruvate (CC Pro, Neustadt, Germany) and 20 μg/ml Gentamycin (Cambrex). CD8+ lymphocytes were isolated using the CD8+ MACS positive selection kit (Miltenyi, Bergisch Gladbach, Germany) according to the manufacturer's instructions. […] 800.000 beads/200 μl were coated in 96-well plates in the presence of 600 ng biotin anti-CD28 plus 200 ng relevant biotin-pMHC (high density beads) or 2 ng relevant plus 200 ng irrelevant (pMHC library) MHC (low density beads). Stimulations were initiated in 96-well plates by co-incubating 1×10^6 CD8+ T cells with 2×10^5 washed coated beads in 200 μl TCM supplemented with 5 ng/ml IL-12 (PromoCell) for 3-4 days at 37° C. Half of the medium was then exchanged by fresh TCM supplemented with 80 U/ml IL-2 and incubating was continued for 3-4 days at 37° C. This stimulation cycle was performed for a total of three times. […] Peptide specific cells were calculated as percentage of total CD8+ T cells. Evaluation of tetrameric analysis was done using the software FCS Express (De Novo Software). In vitro priming of specific tetramer+CD8+ lymphocytes was detected by appropriate gating and by comparing to negative control stimulations.
For `CSCC[C@H](NC(=O)[C@@H](N)[C@@H](C)O)C(=O)N[C@@H](CC(C)C)C(=O)N[C@@H](C)C(=O)N[C@@H](CCCNC(=N)N)C(=O)N[C@@H](CC(C)C)C(=O)N[C@@H](C)C(=O)N[C@@H](CO)C(=O)N[C@@H](C)C(=O)O` [CSP-001], the Positive donors/donors tested is reported as 100% and the Positive wells/wells tested turned out to be 57%.
In the case of “ALWAWPSEL (listed as Homo sapiens) [BCA-002, HLA-A*02 peptide from BCAN]”, the Positive donors/donors tested is on record as 75% and the Positive wells/wells tested is reported as 35%.
“AMTQLLAGV (listed as Homo sapiens) [TNC-001, HLA-A*02 peptide from TNC]” showed a Positive donors/donors tested of 60% and a Positive wells/wells tested of 30%.
“FLGDPPEKL (listed as Homo sapiens) [BCA-001, HLA-A*02 peptide from BCAN]” showed a Positive donors/donors tested of 60% and a Positive wells/wells tested of 5%.
On to “GLQSQIAQV (listed as Homo sapiens) [NES-001, HLA-A*02 peptide from NES]”, for which the Positive donors/donors tested was found to be 75% and the Positive wells/wells tested turned out to be 38%.
For “GLWHHQTEV (listed as Homo sapiens) [NRCAM-001, HLA-A*02 peptide from NRCAM]” the same measures were 86% and 39%.
The compound “KIQEILTQV (listed as Homo sapiens) [IGF2BP3-001, HLA-A*02 peptide from IGF2BP3]” yielded a Positive donors/donors tested of 50% and a Positive wells/wells tested of 21%.
On to “LTFGDVVAV (listed as Homo sapiens) [FABP7-001, HLA-A*02 peptide from FABP7]”, for which the Positive donors/donors tested turned out to be 100% and the Positive wells/wells tested is 27%.
For “NLDTLMTYV (listed as Homo sapiens) [NLGN4X-001, HLA-A*02 peptide from NLGN4X]” the same measures were 100% and 62%.
For “QLLAGVFLA (listed as Homo sapiens) [TNC-002, HLA-A*02 peptide from TNC]”, the Positive donors/donors tested worked out at 50% and the Positive wells/wells tested is given as 14%.
As to “SLNELRVLL (listed as Homo sapiens) [CLIP2-001, HLA-A*02 peptide from CLIP2]”, the Positive donors/donors tested stood at 75% and the Positive wells/wells tested was found to be 6%.
As for “TLVGIIVGV (listed as Homo sapiens) [PDPN-001, HLA-A*02 peptide from PDPN]”, the Positive donors/donors tested is 60% and the Positive wells/wells tested was 11%.
In turn, “YLIAGIISL (listed as Homo sapiens) [SLCO1C1-001, HLA-A*02 peptide from SLCO1C1]” returned a Positive donors/donors tested of 60% and a Positive wells/wells tested of 7%.

The subject of a further assay is granzyme B-secreting CTLs.
Assay: not given
Particulars: type 1 diabetic patients and antibody-positive relatives compared with healthy donors; cited from earlier work.
Regarding “NLAQDLATV (listed as Homo sapiens) [GFAP-001, HLA-A*02 peptide from GFAP]”, the “Reactivity of granzyme B-secreting CTLs” value is “enhanced reactivity”.

The subject of another assay is precursor T cells of glioblastoma patients. The assay is described as follows: In vitro immunogenicity in a small number of glioblastoma patients. The class given is cell-based, human. Particulars: compared with healthy donors.
As to “ALWAWPSEL (listed as Homo sapiens) [BCA-002, HLA-A*02 peptide from BCAN]”, the “Immunogenicity in glioblastoma patients” value was “immunogenic to a similar extent compared with healthy donors”.
Same read-out and setting: the result for “NLDTLMTYV (listed as Homo sapiens) [NLGN4X-001, HLA-A*02 peptide from NLGN4X]” reads “immunogenic to a similar extent compared with healthy donors”.

Values taken from patent publication US11136352B2, “Immunotherapy against several tumors including neuronal and brain tumors” (IMMATICS BIOTECHNOLOGIES GMBH, priority 2008, dated 2021).
